Measurements from US8609723B2 (Beijing Dingguochangsheng Biotech., Co., Ltd., priority 2008, dated 2013).

Columns and labels:
Format in all cases: in vivo
male ICR mice [1] = assay: Tail suspension test in mice; conditions: 18.4 mg/kg single administration, vs control group
Procedure: The tail suspension test was carried out for each of these groups on Days 3, 7 and 14 after administration, except that such experiment was not performed for the curcumin group on Day 14. Tails of the mice were taped on a special iron stand at 1 cm from the tips, whilst keeping the mice staying at a height of 50 cm from ground. Performance of the mice was observed within 6 min, and the accumulative immobile time within the last 4 min was recoded for each mouse.

male ICR mice [2] = assay: Forced swimming test of mice; conditions: 18.4 mg/kg single administration, vs control group
Procedure: The mice were forced to swim on Days 3, 7 and 14 after administration, except that such experiment was not performed for the curcumin group on Day 14.
Twenty four hours before the formal test, the mice were placed into a round glass container (height: 25 cm, diameter: 10 cm) filled with water (depth: 10 cm) with a temperature of 24±1° C., and forced to conduct swim training for 15 min. Twenty four hours later, the mice were placed into the round glass container filled with water (depth: 10 cm) again and forced to swim for 6 min. The accumulative immobile time within the last 4 min was observed and recorded for each mouse. The immobile time is intended to mean the period within which the mouse stops to struggle, floats in the water and keeps immobile, or only makes a few slight movements that are necessary to keep its head floating on the surface of water.

S-180 sarcoma cells [3] = assay: Antitumor experiment of tumor S-180-bearing mice; conditions: 7-day dosage by single administration, 7 days
Source text: During the experiment, the mice were inoculated with S-180 sarcoma cells (×10^7) in armpits. […] Seven days later, the mice were sacrificed by decollation. The tumors were removed, and the mice and the tumors were weighed separately.

S-180 sarcoma cells [4] = assay: Survival experiment of tumor-bearing mice; conditions: S-180-bearing mice, 7-day dosage by single administration; 95% confidence interval 12.8~20.2 days
Procedure: During the experiment, the mice were inoculated with S-180 sarcoma cells (×10^5) in armpits, and the next day the administration begins. The survival rate was recorded for each group.

[5] = test system: chronically stressed rats; assay: Sugar water test of rats (chronic stress model); conditions: table title says (%)
Source text: The rats in the normal control group were raised normally under a condition without any stimulation except for weighing body weight, measuring body temperature, and subjected to sugar test. All of other groups were subjected to stimulations of same type and same strength. During the experiment, different types of stimulations were applied in an unpredictable manner, and the same type of stimulation was enhanced each time.
The chronic stress course was 20 days in total, once per day, from 9:00 AM to 2:00 PM. The stress protocol was shown as follows: horizontally shaking at a high speed for 45 min; nipping tails (1 cm from the tail root): 1 min; depriving of water for 24 h; forbidding moving for 1.5 h; fasting for 24 h; stimulating with ice water (water temperature: 10° C.) for 5 min; electric shocking (1 mA, time course: is, 1 shock/min) the bottoms of feet for 30 min; changing cages and raising separately for 24 h; forbidding moving for 2 h; nipping tails (1 cm from the root of tail) for 1 min; depriving of water for 24 h; horizontally shaking at a high speed for 1.5 h; fasting for 24 h; nipping tails (1 cm from the tail root): 1 min; electric shocking (1 mA, time course: 1 s, 1 shock/min) the bottoms of feet for 40 min; stimulating with ice water for 5 min; changing cages and raising separately for 24 h; horizontally shaking at a high speed for 60 min; electric shocking (1 mA, time course: 1 s, 1 shock/min) the bottoms of feet for 50 min; depriving of water for 24 h; forbidding moving for 2.5 h; and 24 h social isolation.
Before this experiment, animals were trained to adapt to drink sugar water in a to quite room. Two bottles were placed simultaneously into each cage. For the first 24 h, these two bottles were both filled with 1% sugar water; and for the next 24 h, one of them was filled with 1% sugar water and the other was filled with pure water. Then after 23-hour water deprivation, the animals were tested for basic sugar water/pure water consumption. One bottle of 1% sugar water and one bottle of pure water were provided to each rat simultaneously. One hour later, the two bottles were weighed, and the total liquid consumption, sugar water consumption, pure water consumption, and the sugar water preference=sugar water consumption/total liquid consumption×100% were calculated, respectively. The experiment was performed after continuous administration of curcumin for 14 days.

HCT116 cells = assay: Antitumor experiment of tumor HCT116-bearing mice; conditions: 7-day dosage by single administration, 7 days
Source text: During the experiment, the mice were inoculated with HCT116 cells (×10^7) in armpits. […] Seven days later, the mice were sacrificed by decollation. The tumors were removed, and the mice and the tumors were weighed separately.

[6] = test system: 5-HT, NA, DA and metabolites thereof in hippocampus; assay: Detection of monoamine and metabolites thereof in brains of mice; conditions: 18.4 mg/kg
Procedure: Hippocampus was collected immediately on ice, weighed, put into an Eppendorf tube and kept in refrigeratory at −80° C. To each 100 mg brain tissue, 200 μl ice-cooled Solution A (0.4 mol/L HCLO4) was added. The mixture was homogenized ultrasonically in a ice bath, kept in dark at 4° C. for 60 min, and centrifuged for 20 min (12,000 rpm, 4° C.). […] The mixture was vortexed thoroughly for 10 min, kept at 4° C. in dark for 60 min, and centrifuged again for 20 min (12,000 rpm, 4° C.). The supernatant was collected and measured for the content of monoamine. The contents of 5-HT, NA, DA, 5-HIAA and DOPAC in brain tissue were determined by High Effective Liquid Phase Electrochemistry. […] The contents of monoamine and metabolites thereof in brain tissue were shown as ng/g wet tissue weight.

[7] = 4.6 mg/kg, the values are: sugar water preference
[8] = first line of group (Day 3 presumed)
[9] = second line of group (Day 7 presumed)

Substance: curcumin decanoate [long acting curcumin]
- reduced the accumulative immobile time (tail suspension) (male ICR mice [1]; 3 days after administration): 50.7%
- reduced the accumulative immobile time (tail suspension) (male ICR mice [1]; 7 days after administration): 59.5%
- reduced the accumulative immobile time (tail suspension) (male ICR mice [1]; 14 days after administration): 31.8%
- reduced the accumulative immobile time (forced swimming, mice) (male ICR mice [2]; 3 days after administration): 62.1%
- reduced the accumulative immobile time (forced swimming, mice) (male ICR mice [2]; 7 days after administration): 74.7%
- reduced the accumulative immobile time (forced swimming, mice) (male ICR mice [2]; 14 days after administration): 37.8%
- inhibitory rate of tumors (S-180 sarcoma cells [3]; high dosage group): 50.1%
- inhibitory rate of tumors (S-180 sarcoma cells [3]; low dosage group): 28.5%
- inhibitory rate of tumors (S-180 sarcoma cells [3]; medium dosage group): 57.8%
- medium survival time (S-180 sarcoma cells [4]): 17.5 days
- Sugar water volume after stress [5, 7]: 54.1 ± 4.7%
- Sugar water volume before stress [5, 7]: 60.2 ± 9.2%
- Sugar water volume after stress ([5]; 9.2 mg/kg): 72.8 ± 3.1 %
- Sugar water volume before stress ([5]; 9.2 mg/kg, the values are: sugar water preference): 60.4 ± 9.2%
- Sugar water volume after stress ([5]; 18.4 mg/kg): 71.6 ± 2.3 %
- Sugar water volume before stress ([5]; 18.4 mg/kg, the values are: sugar water preference): 66.8 ± 8.6%
- inhibitory rate of tumors (HCT116 cells; high dosage group): 49.3%
- inhibitory rate of tumors (HCT116 cells; low dosage group): 29.6%
- inhibitory rate of tumors (HCT116 cells; medium dosage group): 58.4%
- Hippocampus 5-HIAA [6, 8]: 183.4 ± 14.2 ng/g
- Hippocampus 5-HIAA/5-HT [6, 8]: 0.25 ± 0.02
- Hippocampus 5-HT [6, 8]: 713.1 ± 19.2 ng/g
- Hippocampus DOPAC [6, 8]: 13.1 ± 2.0 ng/g
- Hippocampus Dopamine [6, 8]: 20.3 ± 5.9 ng/g
- Hippocampus Noradrenaline [6, 8]: 369.9 ± 12.3 ng/g
- Hippocampus 5-HIAA [6, 9]: 186.3 ± 8.4 ng/g
- Hippocampus 5-HIAA/5-HT [6, 9]: 0.25 ± 0.03
- Hippocampus 5-HT [6, 9]: 725.0 ± 30.4 ng/g
- Hippocampus DOPAC [6, 9]: 14.6 ± 2.1 ng/g
- Hippocampus Dopamine [6, 9]: 21.2 ± 5.6 ng/g
- Hippocampus Noradrenaline [6, 9]: 372.2 ± 21.6 ng/g
